The values that follow come from patent US9051342B2 (priority 2004, dated 2015).

Data set [1] concerns luciferase with nonsense mutation in a specific codon context (UGAA, UGAC, UAAA or UAAC). The experiment in a line: Western blot of luciferase protein produced by suppression of the nonsense mutation. As to conditions: 293 cells treated with compound, continuation lines list further codon contexts. It counts as cell-based, Human embryonic kidney cells (293 cells). From the text:
Nonsense suppression activity in an assay as described above is shown in the Table 3 below, for a construct with a UGA nonsense mutation at position 190, followed by a cytosine nucleotide in-frame, (UGAC); for a construct with UAG nonsense mutation at position 190, followed by an adenine nucleotide in-frame, (UAGA); for a construct with […] nonsense mutation at position 190, followed by an adenine nucleotide in-frame, (UAAA); and a construct with a UAA nonsense mutation at position 190, followed by an cytosine nucleotide in-frame, (UAAC). Also included in Table 3 is a column (“western blot”) indicating whether treatment of cells with the indicated compound suppresses the nonsense mutation in a specific codon context (UGAA, UGAC, UAAA or UAAC) in luciferase and results in production of luciferase protein as determined by a positive signal on a western blot. A positive result in the western blot assay is indicated by a “+” and the nonsense codon and context of the codon that is suppressed.
Another assay of the present invention can evaluate compounds that promote nonsense mutation suppression. The luciferase constructs described above in FIG. 1 are engineered to harbor two epitope tags in the N-terminus of the luciferase protein. Based on luciferase protein production, these constructs qualitatively assess the level of translation-readthrough. The presence of the full-length luciferase protein produced by suppression of the premature termination codon is measured by immunoprecipitation of the suppressed luciferase protein (using an antibody against a His tag) followed by western blotting using an antibody against the second epitope (the Xpress™ epitope; Invitrogen®; Carlsbad, Calif.). These constructs are depicted in FIG. 2.
Cells that harbor the constructs of FIG. 2 show increased full-length protein production when treated with a compound of the present invention. After treatment for 20 hours, cells containing the constructs of FIG. 2 are collected and an antibody recognizing the His epitope is used to immunoprecipitate the luciferase protein. Following immunoprecipitation, western blotting is performed using the antibody to the Xpress™ epitope (Invitrogen®; Carlsbad, Calif.) to detect the truncated luciferase (produced when no nonsense suppression occurs) and to detect the full-length protein (produced by suppression of the nonsense codon). Treatment of cells with a test compound produces full-length protein and not a readthrough protein (See e.g., FIG. 3). The readthrough protein is produced if suppression of the normal termination codon occurs. Compounds of the present invention suppress the premature, i.e. nonsense mutation, but not the normal termination codon in the luciferase mRNA.
A general note: Immunoblotting shows a protein as a band on a membrane.

As for `O=C(O)c1cccc(-c2ccn(-c3ccc(OC(F)(F)F)cc3)n2)c1` [Compound 66, 3-[1-(4-Trifluoromethoxy-phenyl)-1H-pyrazol-3-yl]-benzoic acid], the melting point lay within 171 to 174 °C. Further, in data set [1] (UAAC codon context construct), the “western blot: production of luciferase protein; + and the codon context that is suppressed” value (“western blot: production” for short) was “UAAC”. The “western blot: production” value in data set [1] (UGAC codon context construct) is on record as “+UGAC;”.
Molecule `O=C(O)c1ccc(-c2ccn(-c3ccc(C(F)(F)F)cc3)c2)cc1` [Compound 105, 4-[1-(4-Trifluoromethyl-phenyl)-1H-pyrrol-3-yl]-benzoic acid] returned a melting point of 315 to 317 °C. For the same molecule, in data set [1] (UAAA codon context construct), the “western blot: production” value is “UAAA”. In addition, the “western blot: production” value in data set [1] (UGAA codon context construct) was “+; UGAA;”. Besides, the “western blot: production” value in data set [1] (UGAC codon context construct) is “UGAC;”.
On to `Cc1ccc(-n2cc(-c3cccc(C(=O)O)c3)cn2)cc1C` [Compound 237, 3-[1-(3,4-Dimethyl-phenyl)-1H-pyrazol-4-yl]-benzoic acid], for which the melting point fell in the range of 196 to 197 °C. The “western blot: production” value in data set [1] is “+; UGAC”.
As for `O=C(O)c1ccc(-n2cc(-c3cccc(F)c3)nn2)cc1` [Compound 265, 4-[4-(3-Fluoro-phenyl)-[1,2,3]triazol-1-yl]-benzoic acid], the melting point was 327 to 328 °C.
`O=C(O)c1ccc(-n2cc(-c3ccc(F)cc3)nn2)cc1` [Compound 266, 4-[4-(4-Fluoro-phenyl)-[1,2,3]triazol-1-yl]-benzoic acid] yielded a melting point of 321 to 323 °C.
On the same count and under the same terms, in the case of `O=C(O)c1ccc(-n2cc(-c3ccc(Br)cc3F)nn2)cc1` [Compound 267, 4-[4-(4-Bromo-2-fluoro-phenyl)-[1,2,3]triazol-1-yl]-benzoic acid] it was 327 to 328 °C; in that of `O=C(O)c1ccc(-n2cc(-c3ccc(F)cc3F)nn2)cc1` [Compound 268, 4-[4-(2,4-Difluoro-phenyl)-[1,2,3]triazol-1-yl]-benzoic acid], 312 to 313 °C.
Same read-out and setting: in the case of `O=C(O)c1ccc(-n2cc(-c3ccc(Cl)cc3)nn2)cc1` [Compound 269, 4-[4-(4-Chloro-phenyl)-[1,2,3]triazol-1-yl]-benzoic acid] it was 313 to 314 °C.
Take `O=C(O)c1ccc(-n2cc(-c3ccccc3Br)nn2)cc1` [Compound 270, 4-[4-(2-Bromo-phenyl)-[1,2,3]triazol-1-yl]-benzoic acid]: the melting point lay in the range of 261 to 262 °C.
The same measure, in the same setting: in the case of `O=C(O)c1ccc(-n2cc(-c3cccc4ccccc34)nn2)cc1` [Compound 271, 4-(4-Naphthalen-1-yl-[1,2,3]triazol-1-yl)-benzoic acid] it was 265 to 266 °C.
Molecule `COc1ccc(-c2cn(-c3ccc(C(=O)O)cc3)nn2)cc1OC` [Compound 272, 4-[4-(3,4-Dimethoxy-phenyl)-[1,2,3]triazol-1-yl]-benzoic acid] had a melting point of 253 to 254 °C.
The same measure, in the same setting: in the case of `CCOc1ccc(-c2cn(-c3ccc(C(=O)O)cc3)nn2)cc1` [Compound 273, 4-[4-(4-Ethoxy-phenyl)-[1,2,3]triazol-1-yl]-benzoic acid] it was 310 to 311 °C; in that of `COc1ccc(-c2cn(-c3ccc(C(=O)O)cc3)nn2)c(C)c1` [Compound 274, 4-[4-(4-Methoxy-2-methyl-phenyl)-[1,2,3]triazol-1-yl]-benzoic acid], 244 to 245 °C.
`CC(C)c1ccc(-c2cn(-c3ccc(C(=O)O)cc3)nn2)cc1` [Compound 275, 4-[4-(4-Isopropyl-phenyl)-[1,2,3]triazol-1-yl]-benzoic acid]: the melting point fell in the range of 311 to 312 °C.
As for `CC(C)c1ccc(-n2nc(-c3ccc(C(=O)O)cc3)oc2=O)cc1` [Compound 276, 4-[4-(4-Isopropyl-phenyl)-5-oxo-4,5-dihydro-[1,3,4]oxadiazol-2-yl]-benzoic acid], the melting point fell in the range of 263 to 267 °C.
In the case of `CC(C)c1ccc(-c2nn(-c3ccc(C(=O)O)cc3)c(=O)o2)cc1` [Compound 277, 4-[5-(4-Isopropyl-phenyl)-2-oxo-[1,3,4]oxadiazol-3-yl]-benzoic acid], the melting point lay within 252 to 254 °C.
Still for that read-out and setting: in the case of `CC(C)c1ccc(-c2nn(Cc3ccc(C(=O)O)cc3)c(=O)o2)cc1` [Compound 278, 4-{[5-(4-isopropylphenyl)-2-oxo-1,3,4-oxadiazol-3(2H)-yl]methyl}benzoic acid] it was 217 to 219 °C; in that of `CC(C)c1ccc(-c2nn(-c3cccc(C(=O)O)c3)c(=O)o2)cc1` [Compound 279], 218 to 220 °C; in that of `N#Cc1cccc(-c2nn(-c3ccc(C(=O)O)cc3)c(=O)o2)c1` [Compound 280, 4-[5-(3-cyanophenyl)-2-oxo-1,3,4-oxadiazol-3(2H)-yl]benzoic acid], 294 to 295 °C (dec.).
Still for that read-out and setting: in the case of `CC(C)c1ccc(-c2nn(-c3ccc(C(=O)O)cc3)c(=O)s2)cc1` [Compound 281, 4-[5-(4-isopropylphenyl)-2-oxo-1,3,4-thiadiazol-3(2H)-yl]benzoic acid] it was 205 to 208 °C; in that of `CC(C)c1ccc(-c2nn(-c3ccc(C(=O)O)cc3)c(=S)s2)cc1` [Compound 282, 4-[5-(4-Isopropyl-phenyl)-2-thioxo-[1,3,4]thiadiazol-3-yl]-benzoic acid], 176 to 179 °C.
The same measure, in the same setting: in the case of `CC(C)c1ccc(-c2nn(-c3cccc(C(=O)O)c3)c(=S)o2)cc1` [Compound 283, 3-[5-(4-Isopropyl-phenyl)-2-thioxo-[1,3,4]oxadiazol-3-yl]-benzoic acid] it was 215 to 217 °C.
Turning to `CC(C)c1ccc(-c2nn(-c3cccc(C(=O)O)c3)c(=O)s2)cc1` [Compound 284, 3-[5-(4-Isopropyl-phenyl)-2-oxo-[1,3,4]thiadiazol-3-yl]-benzoic acid], the melting point lay within 220 to 221 °C.
Molecule `CC(C)c1ccc(-c2nn(-c3ccc(C(=O)O)cc3)c(=S)o2)cc1` [Compound 285, 4-[5-(4-Isopropyl-phenyl)-2-thioxo-[1,3,4]oxadiazol-3-yl]-benzoic acid] showed a melting point of 239 to 240 °C.
The same measure, in the same setting: in the case of `CC(C)c1ccc(-c2ccn(-c3cccc(C(=O)O)c3)c2)cc1` [Compound 287] it was 244 to 245 °C.

A word on the melting point: it is the temperature, or range, at which the solid turns liquid.
